According to patent publication US9011853B2, “B7-H4 fusion proteins and methods of use thereof” (Amplimmune, Inc., priority 2009, dated 2015):
Where “and” joins values, the source holds several entries; their conditions need not be identical. Identical values can stand only once. Entries after “also recorded” stand apart in the source; their conditions may differ.

Legend:
DBA/1 mice [1] = test: Therapeutic CIA study AA#79 (female mice), disease score; format: in vivo, mouse
Procedure: (§1) DBA/1 mice (10 per group) aged 7-9 weeks were used for the CIA model. Mice from several vendors (Jackson Laboratories, Harlan Laboratories, and Taconic Farms) were tested and it was determined that Taconic mice are most appropriate for the CIA studies. Taconic mice develop more consistent and severe disease symptoms and show continued disease progression, while mice from the other vendors often show stable, less severe disease, even in the absence of treatment. female (F) mice in AA#79 and male (M) mice in AA#80, were tested to determine which gender to use in future experiments.
(§2) On the day before the study is initiated, the hair on the right flank of each mouse was removed using an electric clipper. A metal identification tag was placed on the right ear of each mouse. On Day 0, mice were immunized with 100 μL of chicken collagen type II/Complete Freund's Adjuvant (CII/CFA) emulsion in the right flank. On Day 20, the hair on the left flank of each mouse was removed using an electric clipper, and on Day 21, mice were immunized with 100 μL of chicken collagen type II/Incomplete Freund's Adjuvant (CII/IFA) emulsion in the left flank. Pre-filled syringes of CII/CFA and CII/IFA emulsion purchased from Hooke Laboratories were used to ensure consistent dosing with and potency of the immunogen.
(§3) Early arthritis symptoms, such as erythema and mild swelling, usually appear on Day 21, and on Day 28, more severe symptoms such as swelling in many digits and inflammation extending to the tarsal joint are typically present. Each limb is evaluated for severity of arthritis symptoms three times a week using a widely accepted arthritis severity score system, shown in Table 2. The scores from each of the 4 limbs are summed to yield the disease score of each mouse. […]
(§4) Treatment was initiated when the average disease score for the study animals was greater than four. This corresponded to Day 29 in AA#79 and Day 24 in […]. By waiting until animals are symptomatic, it was ensured that the model is performed in a therapeutic rather than prophylactic mode.
(§5) B7-H4-Ig, RPA110010, and murine B7-H4-Ig proteins were administered by intraperitoneal (IP) injection 3 times a week for a total of 8 doses. RPA110010 is an extracellular domain variant of B7-H4-Ig, SEQ ID NO:126. Control murine and human IgG proteins were given once a week for a total of 3 doses. […] All proteins were diluted to the desired concentration (500 μg in 500 μL, or 1 mg/mL) with sterile PBS immediately before injection. Vehicle control mice receive Amplimmune formulation buffer diluted 1:10 in PBS, with an injection volume of 500 μL.

DBA/1 mice [2] = test: Therapeutic CIA study AA#80 (male mice), disease score; format: in vivo, mouse; conditions: for clinical score: individual mice sampled for serum analysis; for AA#80 CIA disease scores: individual mice (Tag #)
Procedure: as §1, §2, §3, §4, §5

[3] = tested on: CD4^+CD62L^+ naïve T cells; test: In vitro Th1 polarization: proliferation and cytokine production; format: cell-based, mouse
Procedure: Mouse splenocytes were first removed isolated from DO11.10 mice, which express an MHC class II restricted T cell receptor specific for OVA323-339. Mouse CD4^+ T cells were purified using a Miltenyi CD4^+ T cell negative isolation kit (Cat#130-090-860). […] CD4^+CD62L^+ naïve T cells with or without CD25^+ T cells were cultured in serum free HL-1 media in the presence of rIL-2 (1 ng/mL), rIL-12 (4 ng/mL) and anti-IL-4 (1 μg/mL). Activity of murine B7-H4-Ig was tested in a number of formats (soluble and insoluble presentation of B7-H4-Ig). Murine B7-H4-Ig was also assessed for activity on T cells activated non-specifically or with antigen-specific stimulation. To provide murine B7-H4-Ig in an immobilized format, 96-well flat bottom plates were first coated with murine B7-H4-Ig, 100 μl per well at 1 μg/mL, and incubated at 37° C. for 2 hours. […] For non-specific antigen activation, Mouse CD3/CD28 T Cell Expander beads (Dynabeads®; Invitrogen, Cat#11452D) were added into each well, at a 1:1 cell to bead ratio. For OVA specific activation, splenocytes were first isolated from Balb/C mice as antigen presenting cells (APC) followed by irradiation at 3000 rads for 45 minutes and then added into each well, at a 1:1, APC to responder cell, ratio. OVA323-339 peptide was added into the culture at 20 μg/mL. [^3H]-Thymidine (1 μCi/well) was added into each well 24 hr post co-incubation. Proliferation was determined by uptake of [^3H]-thymidine detected at 48 hr post [^3H]-thymidine addition using a Topcount Microplate Scintillation Counter (Packard Instruments, Meridan, Conn.). Results are expressed as the mean of triplicate cultures±SEM. Supernatants were collected from plates without [^3H]-Thymidine at 72 hr for cytokine analysis. Cytokine measurements were performed using the Mouse Cytokine 10-Plex system (Millipore) and Luminex Liquidchip analyzer (Qiagen, Valencia, Calif.) or ELISA. The human and mouse B7-H4 proteins are 95% homologous. Human B7-H4-Ig was tested for cross-reactivity with murine T cells. Naïve CD4^+ T cells were isolated as described above. Upon purification, murine naïve CD4^+ T cells were polarized in the presence of IL-2, IL-12 and anti-IL4 for Th1 cell-promoting conditions, or TGF-β, IL-6, IL-23, anti-IL4, anti-IFNγ and anti-IL-2 for Th17 cell-promoting conditions, as described in Example 5 for murine B7-H4-Ig in vitro bioactivity. Human B7-H4-Ig was directly added into the culture at 0, 0.1, 1 or 10 μg/mL. Human Control IgG1 (Synagis®) was added into the culture to bring the final protein concentration to 10 μg/mL. […] After depletion of CD4^+CD25^+ T cells, CD25^+/P3^+ cells were decreased from approximately 5% to 1%.

In the case of “B7-H4-Ig: B7-H4 extracellular domain fused to Ig Fc; bare label is the human protein in Example 3, murine protein in Examples 1, 2, 5, 7-11”, the “disease scores, AA#79” value (DBA/1 mice [1]; female DBA/1 mice, 20 mg/kg IP 3× weekly, 8 doses from Day 29, vs control groups (FIG. 7), 20 mg/kg) is reported as “lower disease scores than mice in the control groups; also recorded: prolonged period of stable disease scores”, the “disease scores, AA#80” value (DBA/1 mice [2]; male DBA/1 mice, 20 mg/kg IP 3× weekly, 8 doses from Day 24, vs control groups (FIG. 8), 20 mg/kg) is reported as “lower disease scores than mice in the control groups; also recorded: prolonged period of stable disease scores” and the “decrease in IFN-γ production” value ([3]; Th1 conditions, APC/OVA, CD25+ T cells depleted (open triangles), various doses (FIG. 29A)) is reported as “dose dependent”. For the same substance, the “inhibition of IFN-γ production” value ([3]; Th1 conditions, APC/OVA, in the presence of CD4+CD25+ Treg cells (solid triangle) (FIG. 29A)) was “more profound” and the IL-10 production ([3]; Th1 conditions, APC/OVA, solid triangles (FIG. 29B)) was “increased IL-10 production in a dose dependent manner”.

For “Human B7-H4-Ig: human B7-H4 extracellular domain fused to hinge, CH2 and CH3 regions of human immunoglobulin Cγ1 chain; representative SEQ ID NOs:114-137”, the CIA disease score (DBA/1 mice [1]; AA#79, Study Day 12, individual mouse (Tag#)) was 1 (2×) and 0 (4×), the CIA disease score (DBA/1 mice [1]; AA#79, Study Day 18, individual mouse (Tag#)) was 2 (2×) and 1 (3×) and 0 and the CIA disease score (DBA/1 mice [1]; AA#79, Study Day 22, individual mouse (Tag#)) was 2 (5×) and 1. The CIA disease score (DBA/1 mice [1]; AA#79, Study Day 25, individual mouse (Tag#)) was 2 (3×) and 3 (2×) and 4, the CIA disease score (DBA/1 mice [1]; AA#79, Study Day 27, individual mouse (Tag#)) was 3 (2×) and 5 and 4 (3×) and the CIA disease score (DBA/1 mice [1]; AA#79, Study Day 29, individual mouse (Tag#)) was 6 and 5 (2×) and 4 (2×) and 7. For the same substance, the CIA disease score (DBA/1 mice [1]; AA#79, Study Day 32, individual mouse (Tag#)) was 5 (2×) and 4 (2×) and 2, the CIA disease score (DBA/1 mice [1]; AA#79, Study Day 34, individual mouse (Tag#)) was 4 (2×) and 2 and 5 (2×) and the CIA disease score (DBA/1 mice [1]; AA#79, Study Day 36, individual mouse (Tag#)) was 4 and 5 and 1 and 6 and 3 and 12. For the same substance, the CIA disease score (DBA/1 mice [1]; AA#79, Study Day 39, individual mouse (Tag#)) was 5 and 12 and 6 and 9 and 3 and 11, the CIA disease score (DBA/1 mice [1]; AA#79, Study Day 41, individual mouse (Tag#)) was 5 (2×) and 12 and 7 and 10 (2×) and the CIA disease score (DBA/1 mice [1]; AA#79, Study Day 43, individual mouse (Tag#)) was 3 (2×) and 10 (2×) and 6 and 9. The CIA disease score (DBA/1 mice [1]; AA#79, Study Day 46, individual mouse (Tag#)) was 4 and 9 and 10 (2×) and 11 and 3, the CIA disease score (DBA/1 mice [1]; AA#79, Study Day 48, individual mouse (Tag#)) was 5 and 10 (3×) and 6 and 11 and the CIA disease score (DBA/1 mice [1]; AA#79, Study Day 50, individual mouse (Tag#)) was 6 (2×) and 9 (2×) and 10 and 12. The CIA disease score (DBA/1 mice [1]; AA#79, Study Day 54, individual mouse (Tag#)) was 3 and 10 (2×) and 13 (2×) and 5, the CIA disease score (DBA/1 mice [1]; AA#79, Study Day 57, individual mouse (Tag#)) was 5 (2×) and 11 and 10 (2×) and 12 and the clinical score (DBA/1 mice [2]; Day 27) was 2 (2×) and 3. The clinical score (DBA/1 mice [2]; Day 34) was 5 and 4, the clinical score (DBA/1 mice [2]; Day 41) was 9 (2×) and 6 and the “AA#80 CIA disease scores” value (DBA/1 mice [2]; Study Day 20) was 4 (2×) and 2 (3×) and 3 (2×) and 5 (2×). For the same substance, the “AA#80 CIA disease scores” value (DBA/1 mice [2]; Study Day 22) was 4 (4×) and 3 and 5 (4×), the “AA#80 CIA disease scores” value (DBA/1 mice [2]; Study Day 24) was 4 (3×) and 5 (5×) and 2 and the “AA#80 CIA disease scores” value (DBA/1 mice [2]; Study Day 27) was 3 (3×) and 2 (5×) and 4. The “AA#80 CIA disease scores” value (DBA/1 mice [2]; Study Day 29) was 2 (5×) and 3 and 1 and 5 (2×), the “AA#80 CIA disease scores” value (DBA/1 mice [2]; Study Day 31) was 2 (4×) and 3 and 1 and 4 (2×) and 5 and the “AA#80 CIA disease scores” value (DBA/1 mice [2]; Study Day 34) was 2 (2×) and 5 (3×) and 1 and 4 (2×) and 6. The “AA#80 CIA disease scores” value (DBA/1 mice [2]; Study Day 36) was 3 and 7 (3×) and 4 (3×) and 5 and 6, the “AA#80 CIA disease scores” value (DBA/1 mice [2]; Study Day 38) was 3 (4×) and 7 and 9 and 5 and 6 and 10 and 12 and the “AA#80 CIA disease scores” value (DBA/1 mice [2]; Study Day 41) was 4 and 9 (5×) and 6 and 10 and 13. The “AA#80 CIA disease scores” value (DBA/1 mice [2]; Study Day 44) was 3 and 11 (3×) and 8 and 9 and 12 and 14 and 4, the “IFN-γ production in Th1 cells” value ([3]; 0, 0.1, 1 or 10 μg/mL in solution, anti-CD3/CD28 beads (FIG. 27)) was “reduced IFN-γ production” and the “murine Th1 proliferation” value ([3]; 0, 0.1, 1 or 10 μg/mL in solution, anti-CD3/CD28 beads, dose dependent (FIG. 26)) was “blocked murine Th1/Th17 proliferation”.
